The record followed here is BindingDB's records for doi:10.1016/s0960-894x(97)10184-6 (Cinc, 1999).

Experiment [1] can be described thus: Tested for inhibition of substrate hydrolysis in the presence of porcine kidney esterase at a concentration of 9 uM.
The nature of experiment [2]: Tested for inhibition of substrate hydrolysis in the presence of porcine kidney esterase at a concentration of 1 uM.
The nature of experiment [3]: Tested for inhibition of substrate hydrolysis in the presence of porcine kidney esterase at a concentration of 45 nM.

The Ki is a measure of affinity in units of concentration, obtained from inhibition or displacement. Take `COC(=O)CCC(=O)N[C@@H](C)C(=O)N[C@@H](C)C(=O)N1CCC[C@H]1C(=O)N/C(=C(/OC(C)=O)C(=O)OC)C(C)C` [(E)-2-Acetoxy-3-[((S)-1-{(S)-2-[(S)-2-(3-methoxycarbonyl-propionylamino)-propionylamino]-propionyl}-pyrrolidine-2-carbonyl)-amino]-4-methyl-pent-2-enoic acid methyl ester]: the Ki in experiment [1] and in experiment [2] was 130 nM throughout. With `COC(=O)/C(OC(C)=O)=C(\NC(=O)[C@@H]1CCCN1C(=O)[C@H](C)NC(=O)[C@H](C)NC(=O)c1ccc(C(=O)NS(=O)(=O)c2ccc(Cl)cc2)cc1)C(C)C` [(E)-2-Acetoxy-3-{[(S)-1-((S)-2-{(S)-2-[4-(4-chloro-benzenesulfonylaminocarbonyl)-benzoylamino]-propionylamino}-propionyl)-pyrrolidine-2-carbonyl]-amino}-4-methyl-pent-2-enoic acid methyl ester], the Ki in experiment [3] worked out at 13 nM.
